According to patent US20070104778A1, “Controlled-release emulsion compositions” (priority 2005, published 2007):
In brackets after ≈: the same amount, converted by molar mass. Like-named read-outs stand apart in the source and are kept apart here.

Assays:
[1] = Solubility of clozapine in different pH medium; format: physicochemical
[2] = Solubility of clozapine in solvent; format: physicochemical; details: organic solvent or mixture
[3] = Solubility of clozapine in organic acid and Vitamin E-TPGS + organic acid combination

In the case of CN1CCN(C2=Nc3cc(Cl)ccc3Nc3ccccc32)CC1 [Clozapine, clozapine], the solubility ([1]; DI water, water) is reported as 11.8 µg/mL (≈ 36.1 µM), the “Solubility (pH dependent behavior)” value ([1]; low pH regions) is reported as “fairly good solubility” and the solubility ([1]; pH 1.5 medium, pH 1.5, simulated gastric fluid) is reported as 712 µg/mL (≈ 2180 µM). For the same compound, the solubility ([1]; pH 7.5 medium, pH 7.5, aqueous buffer) was 30.7 µg/mL (≈ 93.9 µM), the “Solubility (pH dependent behavior)” value ([1]; pH beyond 5) was “low solubility” and the solubility ([2]; 2-pyrrolidinone (Soluphor-P)) was over 250000 µg/mL. The solubility ([2]; N-methyl-2-pyrrolidinone (NMP)) was over 300000 µg/mL, the solubility (Bile extract 1% w/v surfactant solution, aqueous with cosolvent or surfactant or cyclodextrin) was 941 µg/mL (≈ 2880 µM) and the solubility (Brij 700 1% w/v surfactant solution, aqueous with cosolvent or surfactant or cyclodextrin) was 336 µg/mL (≈ 1030 µM). For the same compound, the solubility (Cremphor A25 1% w/v surfactant solution, aqueous with cosolvent or surfactant or cyclodextrin) was 506 µg/mL (≈ 1550 µM), the solubility (Cremphor A-6 1% w/v surfactant solution, aqueous with cosolvent or surfactant or cyclodextrin) was 11.5 µg/mL (≈ 35.2 µM) and the solubility (Cremphor RH 40 1% w/v surfactant solution, aqueous with cosolvent or surfactant or cyclodextrin) was 115 µg/mL (≈ 351 µM). The solubility (Labrasol 1% w/v surfactant solution, aqueous with cosolvent or surfactant or cyclodextrin) was 70.6 µg/mL (≈ 216 µM), the solubility (Lutrol F-68 1% w/v surfactant solution, aqueous with cosolvent or surfactant or cyclodextrin) was 15.3 µg/mL (≈ 46.8 µM) and the solubility (PEG 400 1% w/v surfactant solution) was 30.9 µg/mL (≈ 94.6 µM). The solubility (PEG 600 1% w/v surfactant solution) was 29.7 µg/mL (≈ 90.8 µM), the solubility (PEG distearate 1% w/v surfactant solution, aqueous with cosolvent or surfactant or cyclodextrin) was 952 µg/mL (≈ 2910 µM) and the solubility (PEG-diolaurate 1% w/v surfactant solution, aqueous with cosolvent or surfactant or cyclodextrin) was 104 µg/mL (≈ 320 µM). For the same compound, the solubility (PEG-monolaurate 1% w/v surfactant solution, aqueous with cosolvent or surfactant or cyclodextrin) was 372 µg/mL (≈ 1140 µM), the solubility (Sodium Dodecylate Sulfate (SDS) 1% w/v surfactant solution, aqueous with cosolvent or surfactant or cyclodextrin) was 1140 µg/mL (≈ 3480 µM) and the solubility (Sodium desoxycholate 1% w/v surfactant solution, aqueous with cosolvent or surfactant or cyclodextrin) was 342 µg/mL (≈ 1050 µM). For the same compound, the solubility (Solutol HS15 1% w/v surfactant solution, aqueous with cosolvent or surfactant or cyclodextrin) was 344 µg/mL (≈ 1050 µM), the solubility (Span 20 1% w/v surfactant solution, aqueous with cosolvent or surfactant or cyclodextrin) was 16.1 µg/mL (≈ 49.4 µM) and the solubility (Tween 20 1% w/v surfactant solution, aqueous with cosolvent or surfactant or cyclodextrin) was 158 µg/mL (≈ 485 µM). For the same compound, the solubility (Tween 80 1% w/v surfactant solution, aqueous with cosolvent or surfactant or cyclodextrin) was 399 µg/mL (≈ 1220 µM), the solubility ([3]; Alginic acid 1% w/v, aqueous buffer) was 9.99 µg/mL and the solubility ([3]; Ascorbic acid 1% w/v, aqueous buffer) was 259 µg/mL. It also gave a solubility ([3]; Citric acid (0.1M), aqueous buffer) of 35400 µg/mL, a solubility ([3]; Fumaric acid (0.01M), aqueous buffer) of 8880 µg/mL and a solubility ([3]; Oleinic acid 1% w/v, aqueous with cosolvent or surfactant or cyclodextrin) of 9.86 µg/mL. The “Solubility of Clozapine in Organic Acid” value ([3]; Stearic acid 1% w/v) was “Form conjugated compound” and the solubility ([3]; Succinic acid (0.05M), aqueous buffer) was 25700 µg/mL.
